Key:
A549 xenograft = A549 xenograft mouse model, tumor growth; format: in vivo; settings: i.p.
Procedure: 4.7 Therapeutic anti-tumor evaluation
Animal experiments were carried out in accordance with the regulatory guidelines of the Ethics Committee of the Ghent University Hospital. 30 female Swiss Nude Immunodeficient mice (Crl:NU(Ico)-Foxn1nu) of 5 weeks-6 weeks old (Charles River) were subcutaneously injected with […] A549 (1:1 serum free DMEM medium: Matrigel (Corning)). 10 days post inoculation ,mice were randomized into five groups (6 mice/group) with equal average tumor volume and treatment was started: (1) the control group: Vehicle(20% PEG400 and 5% […]
2J2V group (0.1 mg/kg), (5) the 2J2V group(0.5 mg/kg).Mice were treated on Day 0, Day 2, Day 4, Day 11, Day 18 by intraperitoneal injection. Tumor growth was monitored every 3 days by caliper, and the tumor volume was calculated as 1/2 × length × width2. Body weight was monitored every 3 days by weighing scale. […]
The reduced […]
proteins were alkylated with 40 mM iodoacetamide (IAA) in the dark for 30 minutes. Then samples were acidified with 1.2% aqueous phosphoric acid and mixed with 6× volumes of 90% methanol, 100 mM TEAB, pH 7.1 (S-Trap binding buffer). The samples were loaded onto the (1 picture or pasted object on this page, not shown here)

[1] = tested on: HEK293, A549, HCT116 and SKOV-3; assay: CellTiter-Glo metabolic activity, cell line panel; format: cell-based; settings: 48 h
Procedure: 4.4 Cell viability assay on 2D cells cultures
HEK293, HCT116, A549,andSKOV-3 cells were seeded in 96-well tissue culture plates at a density of 2000-3000 cells per well in 100 µl of growth medium and incubated overnight at 37 °C with 5% CO2. The following day, the cells were treated with various concentrations of compounds or 0.05% DMSO for 48 h. After treatment, add 100 μl of Cell Titer-Glo® 2.0 Reagent (cat. no. G9243, Promega) in each well, then the 96-well plates were put on an orbital shaker for 10 min and then allow the plate to incubate at room temperature for 10-20min to stabilize the luminescent signal. Luminescence readout (Gen5 Data Analysis Software v3.08.01) was performed to record luminescence.
(1 picture or pasted object on this page, not shown here)

[2] = Mouse serum stability by HPLC-MS/MS; format: in vitro ADME; settings: after 2 hours of incubation, 37°C
Procedure: Figure S7. Dual-ligand PROTACs inhibit cancer cell growth in 2D and 3D in vitro cell cultures.
(A) 2D-cultured SKOV-3 were treated with an escalating dose of PROTACs for 48h. Cell viability was assessed by CellTiter-Glo 2D assay. EC50 values were calculated from fitted curves. (B) HCT116 spheroids were treated with an escalating dose of PROTACs for 72h (equivalent volume of DMSO as control group). Representative transmitted microscopy images at the dose of 10nM. (C) Cell viability was assessed by Cell Titer-Glo 3D assay. Both experiments were performed as three independent replicates. (D) 2D-cultured A549 cells were treated with an escalating dose of PROTACs equipped with similar linker length as dual-ligand PROTACs. Cell viability was assessed by CellTiter-Glo 2D assay.
EC50 values were calculated from fitted curves.
Eurofins Panlabs, 6 Research Park Dr. St. Charles, MO 63304, U.S.A. Compounds were incubated in the mouse serum at 37°C for certain time, and at 0, 0.5, 1, 1.5, 2 hours post incubation, the mouse serum was analyzed by HPLC-MS/MS according to the reference: Di, L. et al. (2005), Int. J. Pharm., 297 (1-2): 110-119. […] Samples were analyzed by HPLC-MS/MS and peak areas were recorded for each analyte. The area of precursor compound remaining after each of the time points relative to the amount remaining at time zero, expressed as percent, is calculated. […]

Row | Compound | tumor growth (A549 xenograft; higher dose of 0.5 mg kg−1, Swiss nude mice) | metabolic inhibition, comparison [1] | compound remained intact in mouse serum [2] | anti-tumor activity (A549 xenograft; 0.5 and 0.1 mg kg−1, Swiss nude mice)
1 | Cc1ncsc1-c1ccc(C(C)NC(=O)C2CC(O)CN2C(=O)C(NC(=O)COCCOCCNC(=O)CC(NC(=O)CCc2cn(CCOCCOCCOCCOCC(=O)NC(CC(=O)NCCOCCOCCNC(=O)CC3N=C(c4ccc(Cl)cc4)c4c(sc(C)c4C)-n4c(C)nnc43)C(=O)NCCOCCOCCNC(=O)CC3N=C(c4ccc(Cl)cc4)c4c(sc(C)c4C)-n4c(C)nnc43)nn2)C(=O)NCCOCCOCC(=O)NC(C(=O)N2CC(O)CC2C(=O)NC(C)c2ccc(-c3scnc3C)cc2)C(C)(C)C)C(C)(C)C)cc1 (centres unmarked) [2J2V] | potent reduction in tumor growth | greater metabolic response compared to the CRBN ligase-based dual-ligand PROTACs 2J2P | 88% | 
2 | Cc1ncsc1-c1ccc(CNC(=O)C2CC(O)CN2C(=O)C(NC(=O)COCCOCCOCCNC(=O)CC2N=C(c3ccc(Cl)cc3)c3c(sc(C)c3C)-n3c(C)nnc32)C(C)(C)C)cc1 (centres unmarked) [MZ1, reference compound] |  |  | 95% | did not exhibit significant anti-tumor activity
